Measurements: the NIST ThermoML archive (doi:10.1021/je049762q)

Assay: molar heat capacity at constant pressure
Details: 101.33 kPa

Clc1ccc(Cl)cc1 [1,4-dichlorobenzene]
Details | molar heat capacity at constant pressure [J/K/mol]
194.87 K, Crystal 3 | 102.23
195.23 K, Crystal 3 | 102.39
197.82 K, Crystal 3 | 103.42
198.11 K, Crystal 3 | 103.53
200 K, Crystal 3 | 104.28
200.75 K, Crystal 3 | 104.57
200.98 K, Crystal 3 | 104.65
203.66 K, Crystal 3 | 105.76
206.55 K, Crystal 3 | 106.91
209.43 K, Crystal 3 | 108.06
210 K, Crystal 3 | 108.29
212.28 K, Crystal 3 | 109.21
215.03 K, Crystal 3 | 110.08
215.12 K, Crystal 3 | 110.42
217.8 K, Crystal 3 | 111.29
217.94 K, Crystal 3 | 111.43
220 K, Crystal 3 | 112.15
220.54 K, Crystal 3 | 112.37
220.75 K, Crystal 3 | 112.46
223.28 K, Crystal 3 | 113.45
225.99 K, Crystal 3 | 114.54
226.32 K, Crystal 3 | 114.68
228.7 K, Crystal 3 | 115.59
229.08 K, Crystal 3 | 115.81
230 K, Crystal 3 | 116.16
231.39 K, Crystal 3 | 116.65
231.82 K, Crystal 3 | 116.88
234.07 K, Crystal 3 | 117.7
234.55 K, Crystal 3 | 117.96
236.73 K, Crystal 3 | 118.76
237.27 K, Crystal 3 | 119.01
239.38 K, Crystal 3 | 119.79
239.97 K, Crystal 3 | 119.98
240 K, Crystal 3 | 119.99
242.02 K, Crystal 3 | 120.79
242.66 K, Crystal 3 | 121.05
244.65 K, Crystal 3 | 121.76
245.34 K, Crystal 3 | 122.11
247.26 K, Crystal 3 | 122.73
248 K, Crystal 3 | 123.17
249.87 K, Crystal 3 | 123.71
250 K, Crystal 3 | 123.77
250.66 K, Crystal 3 | 124.06
252.46 K, Crystal 3 | 124.73
253.3 K, Crystal 3 | 125.12
255.04 K, Crystal 3 | 125.74
257.61 K, Crystal 3 | 126.76
260 K, Crystal 3 | 127.72
260.16 K, Crystal 3 | 127.77
262.71 K, Crystal 3 | 128.79
265.24 K, Crystal 3 | 129.78
267.76 K, Crystal 3 | 130.84
270 K, Crystal 3 | 131.65
270.28 K, Crystal 3 | 131.78
272.78 K, Crystal 3 | 132.68
275 K, Crystal 2 | 134.45
275 K, Crystal 3 | 133.61
280 K, Crystal 2 | 135.94
281.42 K, Crystal 2 | 136.31
283.88 K, Crystal 2 | 137.36
286.32 K, Crystal 2 | 138.34
290 K, Crystal 2 | 139.78
292.1 K, Crystal 2 | 140.78
293.87 K, Crystal 2 | 141.42
296.42 K, Crystal 2 | 142.86
298.15 K, Crystal 2 | 143.78
298.96 K, Crystal 2 | 144.24
300 K, Crystal 2 | 144.8
301.51 K, Crystal 2 | 145.69
306 K, Crystal 1 | 147.86
306 K, Crystal 2 | 147.75
308.59 K, Crystal 1 | 148.61
310 K, Crystal 1 | 149.45
311.33 K, Crystal 1 | 150.45
314.11 K, Crystal 1 | 151.51
316.65 K, Crystal 1 | 152.8
319.2 K, Crystal 1 | 154.18
320 K, Crystal 1 | 154.72
321.74 K, Crystal 1 | 155.8
326.24 K, Crystal 1 | 158
326.24 K, Liquid | 175.98
330 K, Liquid | 176.87
331.52 K, Liquid | 177.33
332.72 K, Liquid | 177.51
333.8 K, Liquid | 177.86
335.4 K, Liquid | 178.04
336.04 K, Liquid | 178.35
337.95 K, Liquid | 178.72
338.28 K, Liquid | 178.83
340 K, Liquid | 179.23
340.5 K, Liquid | 179.25
340.53 K, Liquid | 179.38
342.77 K, Liquid | 179.91
343.05 K, Liquid | 179.96
345.6 K, Liquid | 180.47
348.14 K, Liquid | 181.07
350 K, Liquid | 181.59
350.69 K, Liquid | 181.7
353.24 K, Liquid | 182.31
355.79 K, Liquid | 183.1
358.34 K, Liquid | 183.5
360 K, Liquid | 183.95
360.89 K, Liquid | 184.17
363.44 K, Liquid | 184.8
368.54 K, Liquid | 185.95
370 K, Liquid | 186.3
371.09 K, Liquid | 186.69
373.64 K, Liquid | 187.14
376.2 K, Liquid | 187.74
380 K, Liquid | 188.66
